Experimental data: patent US20080207614A1, “QUINAZOLINE DERIVATIVES FOR THE TREATMENT AND PREVENTION OF DIABETES AND OBESITY” (SK CHEMICALS CO., LTD., priority 2004, published 2008)

Test system: AMPK
Test: Measurement of AMPK activity by Western blot in C2C12 cells
Type: cell-based
Design: key to AMPK activity (degree of phosphorylation of serine-79 and threonine-172): fold increase in threonine-172 phosphorylation
Settings: 10 μM for 50 minutes, no superscript: Western blot of serine-79 and threonine-172 phosphorylation
Protocol: C2C12 cells were cultured and differentiated in the same manner as in Experimental Example 1. Treatment with the test materials was also performed in the same manner as in Experimental Example 1 (10 μM for 50 minutes). The culture medium was removed and the cells were washed for 2 times with PBS and protein extracts were obtained using a lysis buffer (50 mM tris-HCl, pH 7.4, 1% NP-40, 0.25% sodium deoxycholate, 150 mM NaCl, 1 mM EDTA, 1 mM PMSF, 1 mM sodium o-vanadate, 1 mM NaF, 1 μg/mL apronitin, 1 μg/mL leu-peptin, 1 μg/mL pepstatin). The AMPK activity was determined from Western blot analysis of the degree of phosphorylation of serine-79 […] acetyl CoA carboxylase and the degree of phosphorylation of threonine-172. The amount of ERK (extracellular signal regulated protein kinase) was confirmed by Western blot in order to quantify the proteins.
The result of Western blot analysis is given in Table 3 below, wherein “strong” means that the degree of phosphorylation of threonine-172 increased by 3 times or more, “mild” means that the degree of phosphorylation of threonine-172 increased by 1 to 3 times and “weak” means that the degree of phosphorylation of threonine-172 increased by less than 1 time.

| SMILES | AMPK activity (degree of phosphorylation of serine-79 and threonine-172) |
| --- | --- |
| COc1cc(OC)c(CNc2nc(N3CCCCC3)nc3ccccc23)c(OC)c1 [Compound 316, (2-Piperidino-1-ylquinazolino-4-yl)-(2,4,6-trimethoxybenzyl)-amine] | 1.2 |
| COc1ccc(CNc2nc(N3CCCCC3)nc3ccccc23)cc1 [Compound 284, (4-Methoxybenzyl)-(2-piperidino-1-ylquinazolino-4-yl)-amine] | 1.4 |
| COc1ccc(CNc2ncnc3ccccc23)cc1OC [Compound 410, (3,4-Dimethoxybenzyl)-quinazolino-4-ylamine] | 1.1 |
| CCCc1nc(NCc2cc(OC)c(OC)c(OC)c2)c2ccccc2n1 [Compound 400, (2-Propylquinazolino-4-yl)-(3,4,5-trimethoxybenzyl)-amine] | 0.4 |
| COc1cc(OC)c(CNc2nc(N3CCOCC3)nc3ccccc23)c(OC)c1 [Compound 317, (2-Morpholino-4-ylquinazolino-4-yl)-(2,4,6-trimethoxybenzyl)-amine] | 0.3 |
| COc1cc(OC)c(CNc2nc(-c3cccs3)nc3ccccc23)c(OC)c1 [Compound 359, (2-Thiopenyl-2-ylquinazolino-4-yl)-(2,4,6-trimethoxybenzyl)-amine] | 0.9 |
| COc1ccc(CNc2nc(N3CCN(C)CC3)nc3ccccc23)c(OC)c1 [Compound 294, (2,4-Dimethoxybenzyl)-[2-(4-methylpiperazino-1-yl)-quinazolino-4-yl]-amine] | 0.4 |
| COc1ccc(CNc2nc(N3CCN(C)CC3)nc3ccccc23)cc1 [Compound 286, (4-Methoxybenzyl)-[2-(4-methylpiperazino-1-yl)-quinazolino-4-yl]-amine] | 1.0 |
| COc1cccc(CNc2nc(N3CCN(C)CC3)nc3ccccc23)c1OC [Compound 290, (2,3-Dimethoxybenzyl)-[2-(4-methylpiperazino-1-yl)-quinazolino-4-yl]-amine] | 1.0 |
| COc1cc(CNc2nc(N3CCCCC3)nc3ccccc23)cc(OC)c1OC [Compound 312, (2-Piperidino-1-ylquinazolino-4-yl)-(3,4,5-trimethoxybenzyl)-amine] | 0.3 |
| CCOc1nc(NCc2ccc(OC)cc2OC)c2ccccc2n1 [Compound 319, (2,4-Dimethoxybenzyl)-(2-ethoxyquinazolino-4-yl)-amine] | 1.5 |
| COc1cc(CNc2nc(C(OC)c3ccccc3)nc3ccccc23)cc(OC)c1 (stereo not drawn) [Compound 365, (3,5-Dimethoxybenzyl)-[2-(methoxyphenylmethyl)-quinazolino-4-yl]-amine] | 1.1 |
| COc1ccc(CNc2nc(-c3cccs3)nc3ccccc23)cc1 [Compound 351, (4-Methoxybenzyl)-(2-thiopenyl-2-ylquinazolino-4-yl)-amine] | 0.7 |
| CC(C)c1nc(SCc2ccccc2)c2ccccc2n1 [Compound 416, 4-Benzylsulfanyl-2-isopropylquinazoline] | 0.7 |
| COc1cc(CNc2nc(N3CCN(C)CC3)nc3ccccc23)cc(OC)c1OC [Compound 314, [2-(4-Methylpiperazino-1-yl)-quinazolino-4-yl]-(3,4,5-trimethoxybenzyl)-amine] | 0.2 |
| CCCc1nc(NCc2ccc(OC)cc2OC)c2ccccc2n1 [Compound 401, (2,4-Dimethoxybenzyl)-(2-propylquinazolino-4-yl)-amine] | 1.4 |
| CCCc1nc(NCc2ccccc2OC)c2ccccc2n1 [Compound 393, (2-Methoxybenzyl)-(2-propylquinazolino-4-yl)-amine] | 1.0 |
| COc1cc(OC)c(CNc2nc(N3CCN(C)CC3)nc3ccccc23)c(OC)c1 [Compound 318, [2-(4-Methylpiperazino-1-yl)-quinazolino-4-yl]-(2,4,6-trimethoxybenzyl)-amine] | 0.5 |
| COc1ccc(CNc2nc(-c3ccco3)nc3ccccc23)cc1OC [Compound 344, (3,4-Dimethoxybenzyl)-(2-furano-2-ylquinazolino-4-yl)-amine] | 0.4 |
| COc1cccc(CNc2nc(N3CCN(C)CC3)nc3ccccc23)c1 [Compound 282, (3-Methoxybenzyl)-[2-(4-methylpiperazino-1-yl)-quinazolino-4-yl]-amine] | 0.9 |

| SMILES | AMPK activity (degree of phosphorylation of serine-79 and threonine-172) |
| --- | --- |
| COc1cccc(CNc2nc(N3CCOCC3)nc3ccccc23)c1 [Compound 281, (3-Methoxybenzyl)-(2-morpholino-4-ylquinazolino-4-yl)-amine] | 0.9 |
| COc1ccccc1CNc1nc(N2CCOCC2)nc2ccccc12 [Compound 277, (2-Methoxybenzyl)-(2-morpholino-4-ylquinazolino-4-yl)-amine] | 1.3 |
| CCCc1nc(NCc2c(OC)cc(OC)cc2OC)c2ccccc2n1 [Compound 403, (2-Propylquinazolino-4-yl)-(2,4,6-trimethoxybenzyl)-amine] | 1.3 |
| COc1cccc(CNc2nc(C3CC3)nc3ccccc23)c1OC [Compound 386, (2-Cyclopropylquinazolino-4-yl)-(2,3-dimethoxybenzyl)-amine] | 1.3 |
| COc1cccc(CNc2nc(-c3ccco3)nc3ccccc23)c1OC [Compound 342, (2,3-Dimethoxybenzyl)-(2-furano-2-ylquinazolino-4-yl)-amine] | 1.0 |
| COc1cccc(CNc2nc(N3CCOCC3)nc3ccccc23)c1OC [Compound 289, (2,3-Dimethoxybenzyl)-(2-morpholino-4-ylquinazolino-4-yl)-amine] | 1.5 |
| COc1ccccc1CNc1nc(N2CCN(C)CC2)nc2ccccc12 [Compound 278, (2-Methoxybenzyl)-[2-(4-methylpiperazino-1-yl)-quinazolino-4-yl]-amine] | 1.2 |
| COc1ccc(OC)c(CNc2nc(N3CCCC3)nc3ccccc23)c1 [Compound 295, (2,5-Dimethoxybenzyl)-(2-pyrrolidino-1-ylquinazolino-4-yl)-amine] | 0.2 |
| CC(C)c1nc(OCc2ccccc2)c2ccccc2n1 [Compound 415, 4-Benzyloxy-2-isopropylquinazoline] | 1.1 |
| COc1cc(OC)c(CNc2nc(N3CCCC3)nc3ccccc23)c(OC)c1 [Compound 315, (2-Pyrrolidino-1-ylquinazolino-4-yl)-(2,4,6-trimethoxybenzyl)-amine] | 0.4 |
| COc1cccc(CNc2nc(N3CCCC3)nc3ccccc23)c1 [Compound 279, (3-Methoxybenzyl)-(2-pyrrolidino-1-ylquinazolino-4-yl)-amine] | 1.3 |
| c1ccc2c(NCc3ccc4c(c3)OCO4)nc(C3CC3)nc2c1 [Compound 385, Benzo[1,3]dioxol-5-ylmethyl-(2-cyclopropylquinazolino-4-yl)-amine] | 2.8 |
| COc1ccccc1CNc1nc(-c2cccs2)nc2ccccc12 [Compound 349, (2-Methoxybenzyl)-(2-thiopenyl-2-ylquinazolino-4-yl)-amine] | 2.1 |
| COc1cc(CNc2nc(-c3cccs3)nc3ccccc23)cc(OC)c1 [Compound 354, (3,5-Dimethoxybenzyl)-(2-thiopenyl-2-ylquinazolino-4-yl)-amine] | 0.6 |
| COc1cccc(CNc2nc(N3CCCCC3)nc3ccccc23)c1 [Compound 280, (3-Methoxybenzyl)-(2-piperidino-1-ylquinazolino-4-yl)-amine] | 1.2 |
| COc1cccc(CNc2nc(-c3cccs3)nc3ccccc23)c1 [Compound 350, (3-Methoxybenzyl)-(2-thiopenyl-2-ylquinazolino-4-yl)-amine] | 0.6 |
| COc1cc(CNc2nc(N3CCOCC3)nc3ccccc23)cc(OC)c1OC [Compound 313, (2-Morpholino-4-ylquinazolino-4-yl)-(3,4,5-trimethoxybenzyl)-amine] | 0.1 |
| COc1cccc(CNc2nc(N3CCCC3)nc3ccccc23)c1OC [Compound 287, (2,3-Dimethoxybenzyl)-(2-pyrrolidino-1-ylquinazolino-4-yl)-amine] | 1.2 |
| COc1cc(OC)c(CNc2nc(-c3ccco3)nc3ccccc23)c(OC)c1 [Compound 348, (2-Furano-2-ylquinazolino-4-yl)-(2,4,6-trimethoxybenzyl)-amine] | 1.6 |
